Source: PubChem BioAssay AID330 (DTP/NCI, 2004)
Inconclusive results and toxic doses are left out.

Test system: P388 leukemia ip, CD2F1 mice, survival T/C
Test: NCI In Vivo Anticancer Drug Screen. Data for tumor model P388 Leukemia (intraperitoneal) in CD2F1 (CDF1) mice
Settings: endpoint: median survival time, higher = longer survival
Procedure, shortened: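 Mice carrying the transplanted tumor received test compound or vehicle. Survival was recorded in each group, and the value is the treated-group measurement divided by that of the vehicle-treated control group.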

[1] = dose: 50.0 mg/kg/injection, schedule: Q01DX005 (ip), vehicle: saline with Tween-80
[2] = dose: 100.0 mg/kg/injection, schedule: Q01DX005 (ip), vehicle: saline with Tween-80
[3] = dose: 200.0 mg/kg/injection, schedule: Q01DX005 (ip), vehicle: saline with Tween-80
[4] = dose: 60.0 mg/kg/injection, schedule: Q01DX005 (ip), vehicle: saline
[5] = dose: 120.0 mg/kg/injection, schedule: Q01DX005 (ip), vehicle: saline
[6] = dose: 240.0 mg/kg/injection, schedule: Q01DX005 (ip), vehicle: saline
[7] = dose: 50.0 mg/kg/injection, schedule: Q01DX009 (ip), vehicle: saline with Tween-80
[8] = dose: 100.0 mg/kg/injection, schedule: Q01DX009 (ip), vehicle: saline with Tween-80
[9] = dose: 200.0 mg/kg/injection, schedule: Q01DX009 (ip), vehicle: saline with Tween-80
[10] = dose: 100.0 mg/kg/injection, schedule: Q04DX003 (ip), vehicle: saline with Tween-80
[11] = dose: 200.0 mg/kg/injection, schedule: Q04DX003 (ip), vehicle: saline with Tween-80
[12] = dose: 25.0 mg/kg/injection, schedule: Q01DX009 (ip), vehicle: saline with Tween-80
[13] = dose: 100.0 mg/kg/injection, schedule: Q01DX001 (ip), vehicle: Klucel (hydroxypropylcellulose) (HPC)

In the case of O=P(N1CCCCCC1)(N1CC1)N1CC1, the T/C (dose: 0.47 mg/kg/injection, schedule: Q01DX009 (ip), vehicle: saline) is reported as 102 % of control, the T/C (dose: 0.94 mg/kg/injection, schedule: Q01DX009 (ip), vehicle: saline) is reported as 108 % of control and the T/C (dose: 0.94 mg/kg/injection, schedule: Q04DX003 (ip), vehicle: saline) is reported as 117 % of control. For the same compound, the T/C (dose: 1.87 mg/kg/injection, schedule: Q01DX009 (ip), vehicle: saline) was 118 % of control, the T/C (dose: 1.88 mg/kg/injection, schedule: Q01DX009 (ip), vehicle: saline) was 118 % of control and the T/C (dose: 3.75 mg/kg/injection, schedule: Q04DX003 (ip), vehicle: saline) was 161 % of control. For the same compound, the T/C (dose: 7.5 mg/kg/injection, schedule: Q04DX003 (ip), vehicle: saline) was 227 % of control, the T/C (dose: 15.0 mg/kg/injection, schedule: Q04DX003 (ip), vehicle: saline) was 165 % of control and the T/C (dose: 22.0 mg/kg/injection, schedule: Q04DX003 (ip), vehicle: saline) was 190 % of control. For the same compound, the T/C (dose: 30.0 mg/kg/injection, schedule: Q04DX003 (ip), vehicle: saline) was 200 % of control and the T/C (dose: 33.0 mg/kg/injection, schedule: Q04DX003 (ip), vehicle: saline) was 259 % of control.
In the case of O=c1[nH]c(=O)c2c(Cl)cccc2[nH]1, the T/C [1] is reported as 93 % of control, the T/C [2] is reported as 100 % of control and the T/C [3] is reported as 91 % of control.
For O=C1c2ccccc2C2CNC1(O)c1ccccc12 (stereo not given), the T/C [1] was 97 % of control, the T/C [2] was 97 % of control and the T/C [3] was 102 % of control.
O=C1C=C(n2ccccc2=O)CCC1 was tested, and the T/C [4] was 93 % of control, the T/C [5] was 93 % of control and the T/C [6] was 102 % of control.
In the case of O=C1CN(c2ccccc2)C(=O)CN1/N=C/c1ccc(Cl)cc1, the T/C [7] is reported as 91 % of control, the T/C [8] is reported as 99 % of control and the T/C [9] is reported as 102 % of control.
For FS(F)(F)(F)(F)c1cccc(NC(=S)SCc2ccc3c(c2)OCO3)c1, the T/C (dose: 50.0 mg/kg/injection, schedule: Q01DX009 (ip), vehicle: suspension in saline) was 102 % of control, the T/C (dose: 100.0 mg/kg/injection, schedule: Q01DX009 (ip), vehicle: suspension in saline) was 106 % of control and the T/C (dose: 200.0 mg/kg/injection, schedule: Q01DX009 (ip), vehicle: suspension in saline) was 102 % of control.
With Cc1noc(/C=C\c2ccccc2O)c1[N+](=O)[O-] the T/C [1] was 92 % of control, the T/C [2] was 99 % of control and the T/C [3] was 97 % of control.
With CC(=O)OCC1OC(OC2=C(CC=C(C)C)C(=O)c3ccccc3C2=O)C(OC(C)=O)C(OC(C)=O)C1OC(C)=O (stereo not given) the T/C (dose: 25.0 mg/kg/injection, schedule: Q04DX003 (ip), vehicle: saline with Tween-80) was 100 % of control, the T/C (dose: 50.0 mg/kg/injection, schedule: Q04DX003 (ip), vehicle: saline with Tween-80) was 102 % of control and the T/C [10] was 94 % of control. For the same compound, the T/C [11] was 114 % of control.
For NC(=O)Cc1nn[nH]n1, the T/C (dose: 100.0 mg/kg/injection, schedule: Q04DX003 (ip), vehicle: Klucel (hydroxypropylcellulose) (HPC)) was 106 % of control, the T/C (dose: 200.0 mg/kg/injection, schedule: Q04DX003 (ip), vehicle: Klucel (hydroxypropylcellulose) (HPC)) was 103 % of control and the T/C (dose: 400.0 mg/kg/injection, schedule: Q04DX003 (ip), vehicle: Klucel (hydroxypropylcellulose) (HPC)) was 107 % of control.
For C1CN(C[C@H]2CO[C@H](CN3CCOCC3)CO2)CCO1, the T/C (dose: 50.0 mg/kg/injection, schedule: Q01DX005 (ip), vehicle: saline) was 91 % of control, the T/C (dose: 100.0 mg/kg/injection, schedule: Q01DX005 (ip), vehicle: saline) was 106 % of control and the T/C (dose: 200.0 mg/kg/injection, schedule: Q01DX005 (ip), vehicle: saline) was 110 % of control.
With CSc1nc2c(nc(N)n2C2OC(COC(C)=O)C(OC(C)=O)C(OC(C)=O)C2OC(C)=O)c(=O)n1C (stereo not given) the T/C (dose: 120.0 mg/kg/injection, schedule: Q01DX005 (ip), vehicle: saline with Tween-80) was 92 % of control and the T/C (dose: 240.0 mg/kg/injection, schedule: Q01DX005 (ip), vehicle: saline with Tween-80) was 96 % of control.
With Cc1ccc(CO)c2ccccc12 the T/C [12] was 96 % of control, the T/C [7] was 107 % of control and the T/C [8] was 96 % of control. The T/C [9] was 96 % of control.
CCCC(OC(=O)c1ccc([N+](=O)[O-])cc1)C(=O)O (stereo not given) was tested, and the T/C (dose: 25.0 mg/kg/injection, schedule: Q01DX001 (ip), vehicle: Klucel (hydroxypropylcellulose) (HPC)) was 95 % of control, the T/C (dose: 50.0 mg/kg/injection, schedule: Q01DX001 (ip), vehicle: Klucel (hydroxypropylcellulose) (HPC)) was 105 % of control and the T/C [13] was 100 % of control.
In the case of COc1ccc(NS(=O)(=O)c2ccc(C)cc2)c([N+](=O)[O-])c1, the T/C (dose: 50.0 mg/kg/injection, schedule: Q01DX009 (ip), vehicle: Klucel (hydroxypropylcellulose) (HPC)) is reported as 116 % of control, the T/C (dose: 100.0 mg/kg/injection, schedule: Q01DX009 (ip), vehicle: Klucel (hydroxypropylcellulose) (HPC)) is reported as 115 % of control and the T/C (dose: 200.0 mg/kg/injection, schedule: Q01DX009 (ip), vehicle: Klucel (hydroxypropylcellulose) (HPC)) is reported as 115 % of control.
In the case of O=C(/C=N/O)Nc1ccccc1I, the T/C (dose: 50.0 mg/kg/injection, schedule: Q01DX005 (ip), vehicle: Klucel (hydroxypropylcellulose) (HPC)) is reported as 100 % of control, the T/C (dose: 100.0 mg/kg/injection, schedule: Q01DX005 (ip), vehicle: Klucel (hydroxypropylcellulose) (HPC)) is reported as 98 % of control and the T/C (dose: 200.0 mg/kg/injection, schedule: Q01DX005 (ip), vehicle: Klucel (hydroxypropylcellulose) (HPC)) is reported as 115 % of control.
In the case of C[C@]12CCC(=O)C=C1CC[C@@H]1[C@@H]2[C@@H](O)C[C@@]2(C)[C@H]1CC[C@]2(C)O, the T/C [12] is reported as 90 % of control, the T/C [7] is reported as 100 % of control and the T/C [8] is reported as 100 % of control. For the same compound, the T/C [10] was 100 % of control, the T/C [11] was 100 % of control and the T/C (dose: 400.0 mg/kg/injection, schedule: Q04DX003 (ip), vehicle: saline with Tween-80) was 100 % of control.
For O=C1NC(=O)C(=C2C(=O)COC2=O)C(=O)N1, the T/C [4] was 103 % of control, the T/C [5] was 106 % of control and the T/C [6] was 104 % of control.
For CS(=O)(=O)OC[C@@H](O)[C@@H](O)COS(C)(=O)=O, the T/C (dose: 50.0 mg/kg/injection, schedule: Q01DX009 (ip), vehicle: saline) was 112 % of control, the T/C (dose: 100.0 mg/kg/injection, schedule: Q01DX009 (ip), vehicle: saline sonified) was 110 % of control and the T/C (dose: 100.0 mg/kg/injection, schedule: Q01DX009 (ip), vehicle: saline) was 99 % of control. The T/C (dose: 200.0 mg/kg/injection, schedule: Q01DX009 (ip), vehicle: saline sonified) was 100 % of control, the T/C (dose: 200.0 mg/kg/injection, schedule: Q01DX009 (ip), vehicle: saline) was 99 % of control and the T/C (dose: 400.0 mg/kg/injection, schedule: Q01DX009 (ip), vehicle: saline sonified) was 100 % of control.
For CCC(C)C1NC(=O)C(NC(=O)c2c3nc4c(C(=O)NC5C(=O)NC(C(C)CC)C(=O)N6CCCC6C(=O)N(C)CC(=O)N(C)C(C(C)C)C(=O)OC5C)cc(N)c(C)c4oc-3c(C)c(=O)c2N)C(C)OC(=O)C(C(C)C)N(C)C(=O)CN(C)C(=O)C2CCCN2C1=O (stereo not given), the T/C (dose: 0.1 mg/kg/injection, schedule: Q01DX009 (ip), vehicle: Klucel (hydroxypropylcellulose) (HPC)) was 247 % of control, the T/C (dose: 0.2 mg/kg/injection, schedule: Q01DX009 (ip), vehicle: Klucel (hydroxypropylcellulose) (HPC)) was 230 % of control and the T/C (dose: 100.0 micrograms/kg/injection, schedule: Q01DX009 (ip), vehicle: water) was 152 % of control. For the same compound, the T/C (dose: 150.0 micrograms/kg/injection, schedule: Q01DX009 (ip), vehicle: water) was 166 % of control and the T/C (dose: 225.0 micrograms/kg/injection, schedule: Q01DX009 (ip), vehicle: water) was 177 % of control.
COc1cc(OC)cc(C2OC(=O)c3c(OC)cc(C)cc32)c1 (stereo not given) was tested, and the T/C (dose: 100.0 mg/kg/injection, schedule: Q04DX002 (ip), vehicle: saline with Tween-80) was 93 % of control, the T/C (dose: 200.0 mg/kg/injection, schedule: Q04DX002 (ip), vehicle: saline with Tween-80) was 88 % of control and the T/C (dose: 400.0 mg/kg/injection, schedule: Q04DX002 (ip), vehicle: saline with Tween-80) was 90 % of control.
NC(=S)c1ccc(C=Nc2ccc(C(N)=S)cc2)cc1 was tested, and the T/C [13] was 87 % of control, the T/C (dose: 200.0 mg/kg/injection, schedule: Q01DX001 (ip), vehicle: Klucel (hydroxypropylcellulose) (HPC)) was 91 % of control and the T/C (dose: 400.0 mg/kg/injection, schedule: Q01DX001 (ip), vehicle: Klucel (hydroxypropylcellulose) (HPC)) was 88 % of control.
